Experimental data from publication PMC10107299, “Neutralizing the Impact of the Virulence Factor LecA from Pseudomonas aeruginosa on Human Cells with New Glycomimetic Inhibitors” (Angewandte Chemie (International Ed. in English), 2023).

Columns and labels:
[1] = In vivo pharmacokinetic study in mice; parameters: species or system CD-1 mice; settings: 1 mg kg^−1 i.v.; for Cmax: male, CD-1, mouse, urine, iv
Method: Encouraged by these promising in vitro results, an in vivo pharmacokinetic study was conducted for H2 and L2 in mice (1 mg kg^−1, i. v.) and in rats for L2 (10 mg kg^−1, i. v.). Compound concentrations were monitored in plasma and urine (Figure 6). H2 and L2 were cleared from mouse plasma within 1 h. Both compounds rapidly reached high concentrations in urine, several orders of magnitude above their respective in vitro LecA binding affinity. In fact, concentrations above the K ds were detected over the entire observation period of 5 h. […] In rats, higher amounts of L2 were detected both in plasma and urine, not solely corresponding to the 10‐fold increased dose. […] Importantly, high levels of L2 were present in rat urine even 24 h after administration.
Pharmacokinetic studies in mice
For pharmacokinetic experiments, outbred male CD-1 mice (Charles River, Germany), 4-weeks-old, were used. The animal studies were conducted in accordance with the recommendations of the European Community (Directive 86/609/EEC, 24 November 1986). All animal procedures were performed in strict accordance with the German regulations of the Society for Laboratory Animal Science (GV-SOLAS) and the European Health Law of the Federation of Laboratory Animal Science Associations (FELASA). Animals were excluded from further analysis if sacrifice was necessary according to the humane endpoints established by the ethical board. All experiments were approved by the ethical board of the Niedersächsisches Landesamt für Verbraucherschutz und Lebensmittelsicherheit, Oldenburg, Germany (33.19-42502-04-20/3522). L2 and H2 were dissolved in water and administered in individual PK studies (N = 2 per study) at 1 mg/kg intravenously. Up to 25 µl blood was collected from the lateral tail vein and time points t = 0.25, 0.5, 1 and 3 hours. At t = 5 hours animals were euthanized to collect blood. At time points t = 0.25, 0.5, 1, 3 and 5 hours spontaneous urine was collected as well. Whole blood was collected into Eppendorf tubes coated with 0.5 M EDTA and immediately spun down at […]
15870 x g for 10 min at 4 °C. […]
Rats were provided with a catheter in the jugular vein 2 - 3 days prior to drug administration and blood sampling. According to national animal welfare guidelines, rats were treated once with Carprofen (5 mg/kg) directly after catheterization. Catheter was rinsed daily with K3EDTA. […]
First, a calibration curve was prepared by spiking different concentrations of L2 and H2 into mouse plasma, rat plasma or mouse urine (matrix for mouse and rat PK samples) from CD-1 mice. […] Samples from the mouse PK study with H2 in mice and from the rat PK study with L2 were analyzed via HPLC-MS/MS as described in the HPLC-MS analysis section above. PK samples from the mouse PK study with L2 were analyzed using an Agilent 1290 […]

plasma protein = test: Plasma protein binding (rapid equilibrium device), murine plasma; type: in vitro ADME, mouse; settings: 1 µM
Method: mixer (Eppendorf). Acetonitrile and caffeine were dispensed using a Mantis Formulatrix. Then samples were centrifuged for 20 min at 2.270 x g at 4 °C and the supernatants were transferred to 96-well Greiner V-bottom plates. Peak areas of each compound and of the internal standard were analyzed using the MultiQuant 3.0 software (AB Sciex). Peak areas of the respective compound were normalized to the internal standard peak area and to the respective peak areas at time point 0 min: (C/D)/(A/B) with A: peak area of the compound at time point 0 min, B: peak area of the internal standard at time point 0 min, C: peak area of the compound at the respective time point, D: peak area of the internal standard at the respective time point. […]
Assessment of plasma protein binding
Plasma protein binding was assessed using the rapid equilibrium device (RED) system from ThermoFisher. Compounds were dissolved in DMSO. […]
high plasma protein binding. Compounds were diluted in murine plasma (from CD-1 mice, pooled) or in human plasma (human donors, both genders, pooled) to a final concentration of 1 µM. Dialysis buffer and plasma samples were added to the respective chambers according the manufacturer’s protocol. The RED plate was sealed with a tape and incubated at 37 °C for 2 hours at 800 rpm on an Eppendorf MixMate vortex-mixer. Then samples were withdrawn from the respective chambers. To 25 µL of each dialysis sample, 25 µL of plasma and to 25 µL of plasma sample, 25 µL of dialysis buffer was added. Then 150 µL ice-cold extraction solvent (ACN/H2O (90:10) containing 12.5 ng/mL caffeine as internal standard) was added. Samples were incubated for 30 min on ice. Then samples were centrifuged at 4 °C at 2270 x g for 10 min.
Supernatants were transferred to Greiner V-bottom 96-well plates and sealed with a tape. The […]
percentage of bound compound was calculated as follows:
(1) % free = (concentration buffer chamber / concentration plasma chamber) *100 […]
Samples were analyzed using an Agilent 1290 Infinity II HPLC system coupled to an AB Sciex QTrap 6500plus mass spectrometer. LC conditions were as follows: column: Agilent […]
Zorbax Eclipse Plus C18, 50x2.1 mm, 1.8 µm; temperature: 30 °C; injection volume: 5 µL per […]
sample; flow rate: 700 µL/min. Samples were run under acidic and buffered conditions.
Solvents for acidic conditions: A1: water + 0.1% formic acid; solvent B1: 95% acetonitrile/5% […]
H2O + 0.1% formic acid; solvents for buffered conditions: A2: 95% water + 5% acetonitrile + […]
5 mM ammonium acetate + 40 µL/L acetic acid; B2: 95% acetonitrile + 5% water + 5 mM […]
ammonium acetate + 40 µL/L acetic acid. The same gradient was applied for acidic and […]
buffered conditions: 99% A at 0 min, 99% A until 1 min, 99% - 0% A from 1 min to 4.0 min, […]
0% A until 5.0 min. Mass transitions for controls and compounds are depicted in the following […]

Compound | Time to clearance from mouse plasma [1] | Cmax [1] | PPB Mouse (plasma protein)
O=C(CCc1ccc(O[C@@H]2O[C@H](CO)[C@H](O)[C@H](O)[C@H]2O)cc1)Nc1ccc(OCCOc2ccc(NC(=O)CCc3ccc(O[C@@H]4O[C@H](CO)[C@H](O)[C@H](O)[C@H]4O)cc3)cn2)nc1 [Compound H2] | ≤ 1 h | 63 µM | 97.6 ± 2.1%
O=C(CCc1ccc(O[C@@H]2O[C@H](CO)[C@H](O)[C@H](O)[C@H]2O)cc1)Nc1ccc(CCc2ccc(NC(=O)CCc3ccc(O[C@@H]4O[C@H](CO)[C@H](O)[C@H](O)[C@H]4O)cc3)cc2S(=O)(=O)O)c(S(=O)(=O)O)c1 [Compound L2] | ≤ 1 h | 13.4 µM | 14.5 ± 6.8%
